Test results reported in BindingDB's records for doi:10.1021/jm030438k (Harvard Medical School, 2004).

Tests used:
[1] = biological target: T1, Dihydrofolate reductase (Homo sapiens, UniProt P00374); assay: Inhibitory concentration against dihydrofolate reductase of rat liver
T1 sequence (P00374 whole entry): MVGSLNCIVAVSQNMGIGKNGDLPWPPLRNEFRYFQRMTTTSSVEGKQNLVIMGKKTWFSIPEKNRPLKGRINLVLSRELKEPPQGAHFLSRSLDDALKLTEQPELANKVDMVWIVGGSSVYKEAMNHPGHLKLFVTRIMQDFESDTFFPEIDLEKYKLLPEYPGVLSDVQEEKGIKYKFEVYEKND

[2] = biological target: Dihydrofolate reductase (Homo sapiens) (UniProt P00374); assay: Inhibitory concentration against dihydrofolate reductace enzyme of humans

IC50 [1] [nM] | IC50 [2] [nM] | SMILES
1.5 | – | COc1cc(Cc2cnc3nc(N)nc(N)c3c2C)cc(OC)c1 [6-(3,5-Dimethoxy-benzyl)-5-methyl-pyrido[2,3-d]pyrimidine-2,4-diamine]
– | 2.8 | Cc1ccc(Cl)cc1Cc1cnc2nc(N)nc(N)c2c1C [6-(5-Chloro-2-methyl-benzyl)-5-methyl-pyrido[2,3-d]pyrimidine-2,4-diamine]
